# Tested on: tobacco budworm (Heliothis virescens [Fabricius])
# Conditions: 0.25 millimolar on the surface of the diet, second instar larvae, five-day exposure; for Percent Mortality: compared to total number of insects infested; for Percent Growth Inhibition: inhibition of insect weight relative to untreated controls
# Procedure: Candidate insecticides were evaluated for activity against the tobacco budworm (Heliothis virescens [Fabricius]) in a surface-treated diet test.
# In this test one mL of molten (65-70° C.) wheat germ-based artificial diet was pipetted into each well of a four by six (24 well) multi-well plate (ID#430345-15.5 mm dia.×17.6 mm deep; Corning Costar Corp., One Alewife Center, Cambridge, Mass. 02140). The diet was allowed to cool to ambient temperature before treatment with candidate insecticide.
# The robot subsequently pipetted 40 microliters of the so-prepared solution onto the surface of the diet in each of three wells in the 24 multi-well plate. The process was repeated with solutions of seven other candidate insecticides. […] Appropriate untreated controls containing only DMSO on the diet surface were also included in this test.
# For evaluations of the insecticidal activity of a candidate insecticide at varying rates of application, the test was established as described above using sub-multiples of the standard 50 millimolar DMSO solution of candidate insecticide. […] In these evaluations there were six replicates of each rate of application placed on the surface of the diet in the 24 multi-well plate, for a total of four rates of application of candidate insecticide in each plate.
# In each well of the test plate was placed one second instar tobacco budworm larvae, each weighing approximately five milligrams. After the larvae were placed in each well, the plate was sealed with clear polyfilm adhesive tape. The tape over each well was perforated to ensure an adequate air supply. The plates were then held in a growth chamber at 25° C. and 60% relative humidity for five days (light 14 hours/day).
# After the five-day exposure period insecticidal activity for each rate of application of candidate insecticide was assessed as percent inhibition of insect weight relative to the weight of insects from untreated controls, and percent mortality when compared to the total number of insects infested.
compound,measurement,value
"2-{2-[3,4-dichlorophenyl)piperazinyl]ethoxy}-5-(3,3-dichloroprop-2-enyloxy)-1,3-dichlorobenzene [Compound 20]",Percent Mortality,100%
same,Percent Growth Inhibition,100%
"O=S(=O)(c1ccc(C(F)(F)F)cc1)N1CCN(c2c(Cl)cc(OCC=C(Cl)Cl)cc2Cl)CC1 [Compound 26, 5-(3,3-dichloroprop-2-enyloxy)-1,3-dichloro-2-{4-[4-(trifluoromethyl)phenylsulfonyl]piperazinyl}benzene]",Percent Mortality,100%
same,Percent Growth Inhibition,100%
"tert-butyl 4-{[4-(3,3-dichloroprop-2-enyloxy)-2,6-dichlorophenoxy]methyl}piperidinecarboxylate [Compound 4]",Percent Mortality,100%
same,Percent Growth Inhibition,100%
"OC1(c2ccc(Cl)cc2)CCN(CCOc2c(Cl)cc(OCC=C(Cl)Cl)cc2Cl)CC1 [Compound 35, 1-{2-[4-(3,3-dichloroprop-2-enyloxy)-2,6-dichlorophenoxy]ethyl}-4-(4-chlorophenyl)piperidin-4-ol]",Percent Mortality,100%
same,Percent Growth Inhibition,100%

# Source: US7671201B2, “Phenyl substituted cyclic derivatives” (priority 2003, dated 2010)
